Results on two substances are retold here after patent US5932217A, “Peptides which inhibit adhesion between leukocytes and endothelial cells” (priority 1994, dated 1999).

For assay [1], the system named is human umbilical vein endothelial cells. The assay can be described thus: Transendothelial migration of neutrophils. Format: cell-based. The conditions noted are these: peptides 0.01 mM. The procedure: Transendothelial migration of neutrophils was studied based on a method described by Muller et al. (1992), J. Exp. Med. 176: 819-828. Briefly, human neutrophils suspended in ice-cold Hanks balanced salt solution (HBSS) containing Ca^++ and Mg^++ (Sigma) were fluoresceinated by adding 3.3 μl/ml 5-(and 6-)carboxyfluorescein diacetate, succinimidyl ester (CFSE, Molecular Probes Inc., Oreg.). After incubation for 30 mins. on ice, neutrophils were washed twice in cold HBSS with Ca^++ and Mg^++ and resuspended in cold Medium 199 (M199, Sigma) to a final concentration of 10^6 /ml. Human umbilical vein endothelial cells were subcultured at confluence into 96-well tissue culture plates (Becton Dickinson Labware, Lincoln Park, N.J.) that were coated with hydrated collagen gel (Vitrogen; Collagen Corporation, Palo Alto, Calif.) and fibronectin. Endothelial cells were stimulated with 10 ng/ml TNF-alpha for 4 hours and washed three times with warm M199. Neutrophils (10^6 /ml) were preincubated with 0.01 mM of peptides or with 1 μM of native FHA in M199 for 5 mins. on ice before they were added in 100 μl aliquots to the endothelial cells. For positive control, neutrophils were pre-incubated with 25 μg/ml anti-CD18 mAb IB4. For negative control, neutrophils were treated with 25 μg/ml mAb W6/32 against HLA class I antigen (Dako, Carpinteria, Calif.). The cells were incubated for 1 hour at 37° C., 5% CO2. To terminate transmigration, the supernatant fluid was aspirated and the wells were filled with warm 1 mM EGTA (Sigma) in HBSS without Ca and Mg. The plates were covered with plate sealers (Dynatech, Alexandria, Va.) and centrifuged in an inverted position at 250 g for 3 mins. at room temperature. To remove residual non-transmigrated neutrophils from the endothelial cells, monolayers were washed twice with 200 μl of warm Hanks solution without Ca and Mg. Fluorescence was quantitated using a fluorescence counter (Millipore Cytofluor™ 2300). The percentage of transmigrated neutrophils was determined by comparing the amount of fluorescence of test wells with that measured in collagen- and fibronectin-coated wells without endothelial cells. […] Percent inhibition of transendothelial migration of neutrophils was calculated by comparing the number of transmigrated cells in wells containing neutrophils treated with peptide to neutrophils treated with M199 alone and arbitrarily set at 100% transendothelial migration (TEM).
(§1) The procedures for determining the neutrophil adherence to cultured endothelial cells and the transendothelial migration of neutrophils were identical with those of Example 9. Control values were the same as those shown in Example 9.

For assay [2] the test system is unchanged. The assay can be described thus: Adherence of neutrophils to cultured activated endothelial cells. The assay is classed as cell-based. How it is done: Human umbilical vein endothelial cells (HUVEC, first passage, Clonetics, San Diego, Calif.) were subcultured at confluence into Terasaki tissue culture wells. After 24 hours, confluent monolayers were used for adherence assays. Monolayers were stimulated with 10 ng/ml TNF alpha (Boehringer Mannheim, Indianapolis, Ind.) at 37° C. for four hours. 30 μl of human neutrophils (10^6 /ml) were labeled with fluorescein by the method of Lo et al. (1991), J. Exp. Med. 173 1493-1500, and preincubated for 15 minutes at 37° C. with 20 μl of peptides (0.5 mM in HAP) or HAP (phosphate buffered saline containing 0.5 mg/ml human serum albumin, 3 mM glucose, and 0.3 U/ml aprotinin) as a control buffer. For some experiments, endothelial cells ere pretreated from 10 minutes with Factor X or antibodies against Factor X receptor (EPR-1; Altieri et al. (1990), J. Immunol. 145, 246-253) 12H1 and 9D4 (obtained from Dr. D. Altieri, Scripps Research Institute, LaJolla, Calif.) and then washed. Neutrophils were allowed to adhere to the monolayer for 15 mins. at 37° C. and unbound cells were removed by submersion of the plate in PBS buffer. The number of adherent neutrophils was counted in a 40× microscope field and expressed as a percentage of adherence in control wells with neutrophils treated with HAP buffer alone. The mAb IB4 against CD18 (50 μg/ml; Merck Inc., Rahway, N.J.) served as a positive control.
The ability of FHA peptides and anti-CD18 or anti-Factor X receptor antibodies to interact cooperatively to inhibit neutrophil adherence to endothelial cells was assessed by measuring neutrophil adherence to endothelial cells in the presence of antibody as well as antibody plus peptide. Anti-CD18 mAb IB4 was added to leukocytes at 10 μg/ml 10 min before the assay. Anti-Factor X receptor mAb 12H1 (10 μl of ascites) or 9D4 (10 μg/ml) were added to the endothelial cell monolayers 10 min before the assay. The peptides were added at 5 μg/ml. The results are shown in Table 8 where the numerical values are in % of control binding.
as §1

In the case of Ac-ETKEVDG-NH2 [Acetyl/Amide-FHA II], the “% Inhibition of TEM” value in assay [1] (native FHA 1 μM, mAbs 25 μg/ml) came out at 61 ± 6%; in assay [1] (native FHA 1 μM, mAbs 25 μg/ml, listed as acetyl/amide modified FHA peptide II), 61±6%. The “inhibition of neutrophil adherence to stimulated HUVEC, comparison in words” value in assay [2] (peptides 0.5 mM, FIG. 17) is reported as “significantly enhanced”.
Filamentous hemagglutinin [native FHA]: the “% Inhibition of TEM” value was 82 ± 1% in assay [1] (FHA 1 μM, mAb IB4 25 μg/ml); 82±1% in assay [1] (FHA 1 μM, mAb IB4 25 μg/ml, listed as Intact FHA); 82±1% in assay [1] (native FHA 1 μM, mAbs 25 μg/ml). In addition, in assay [2], the “concentration at which loss of activity (≤20% inhibition) occurred” value was 10^-3 μM. Also, the “maximal inhibition of neutrophil attachment” value in assay [2] (FIG. 25B) is reported as ~ 50%. Further, the “inhibition of adherence of human neutrophils to cultured endothelial cells” value in assay [2] (Native FHA 50 ug/ml (0.2 uM), FHA peptide C 1 mg/ml (0.2 mM)) worked out at 51±7%. Besides, in assay [2] (native FHA 25 μg/ml=0.3 μM, mAb IB4 50 μg/ml), the “reduction of neutrophil adherence to stimulated HUVEC” value was 51±8%.
